Results reported in ChEMBL document CHEMBL4806958, “Anti-cancer/anti-fibrosis compounds” (2020).
pIC50: −log10 of the molar value. The source made the active and inactive calls.

Columns and labels:
[1] = target: Casein kinase II subunit alpha (Homo sapiens, UniProt P68400); assay: Inhibition of CSNK2A1(unknown origin) using Ser/Thr 11 as substrate incubated for 60 mins in presence of ATP by Z'-LYTE assay
MV4-11 [2] = assay: Cytotoxicity against human MV-4-11 cells assessed as reduction in cell viability measured after 7 days by Celltiter-glo luminescent cell viability assay; assay type: functional, cell-based; settings: MV4-11, 168 h
[3] = target: Cyclin-dependent kinase 19 (Homo sapiens, UniProt Q9BWU1); assay: Inhibition of kinase tracer 236 binding to GST-tagged CDK19 (unknown origin) incubated for 60 mins by LanthaScreen Eu-Kinase binding assay
Chain of Cyclin-dependent kinase 19 (Q9BWU1 whole entry): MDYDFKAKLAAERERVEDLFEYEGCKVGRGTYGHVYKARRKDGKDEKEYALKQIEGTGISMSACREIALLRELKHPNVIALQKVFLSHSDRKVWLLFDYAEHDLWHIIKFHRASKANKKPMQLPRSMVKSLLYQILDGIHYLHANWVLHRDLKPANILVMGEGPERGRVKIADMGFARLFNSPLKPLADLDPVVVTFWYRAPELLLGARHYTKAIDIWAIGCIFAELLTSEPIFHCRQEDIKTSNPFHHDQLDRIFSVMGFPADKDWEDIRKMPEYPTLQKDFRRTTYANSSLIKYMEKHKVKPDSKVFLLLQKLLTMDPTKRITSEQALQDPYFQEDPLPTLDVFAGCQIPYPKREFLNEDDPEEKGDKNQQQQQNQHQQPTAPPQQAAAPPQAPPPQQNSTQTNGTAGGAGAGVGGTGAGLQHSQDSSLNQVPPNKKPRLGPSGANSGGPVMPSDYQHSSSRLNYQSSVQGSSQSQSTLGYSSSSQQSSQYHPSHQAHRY

MOLM-14 [4] = assay: Down regulation of phosphorylated-STAT1 level in human MOLM-14 cells at 0.03 to 3 uM after 24 hrs by Western blotting analysis; assay type: functional, cell-based; settings: dose 0.03-3 µM
MOLM-14 [5] = assay: Down regulation of phosphorylated-STAT5 level in human MOLM-14 cells at 0.03 to 3 uM after 24 hrs by Western blotting analysis; assay type: functional, cell-based; settings: dose 0.03-3 µM
MOLM-14 [6] = assay: Down regulation of phosphorylated-STAT3 level in human MOLM-14 cells at 0.03 to 3 uM after 48 hrs by Western blotting analysis; assay type: functional, cell-based; settings: dose 0.03-3 µM
MOLM-14 [7] = assay: Cytotoxicity against human MOLM-14 cells assessed as reduction in cell viability measured after 7 days by Celltiter-glo luminescent cell viability assay; assay type: functional, cell-based; settings: MOLM-14, 168 h
A549 = assay: Cytotoxicity against human A549 cells assessed as reduction in cell viability measured after 7 days by Celltiter-glo luminescent cell viability assay; assay type: functional, cell-based; settings: A549, 168 h
MV4-11 [8] = assay: Down regulation of phosphorylated-STAT3 level in human MV-4-11 cells after 48 hrs by Western blotting analysis; assay type: functional, cell-based; settings: dose 0.03-3 µM
MOLM-14 [9] = assay: Down regulation of phosphorylated-STAT1 level in mouse xenografted with human MOLM-14 cells by Western blotting analysis; assay type: functional, cell-based; settings: dose 10-100 mg/kg
SW-620 [10] = assay: Cytotoxicity against human SW620 cells assessed as reduction in cell viability measured after 7 days in presence of glycolysis inhibitor 2-DG by Celltiter-glo luminescent cell viability assay; assay type: functional, cell-based; settings: SW-620, 168 h
MCF7 = assay: Cytotoxicity against human MCF7 cells assessed as reduction in cell viability and measured after 7 days by Celltiter-glo luminescent cell viability assay; assay type: functional, cell-based; settings: MCF7, 168 h
MOLM-14 [11] = assay: Down regulation of phosphorylated-STAT5 level in mouse xenografted with human MOLM-14 cells at 50 mg/kg, po administered twice a day for 21 days by Western blotting analysis; assay type: functional, organism-based; settings: time 21.0 day
HCT-116 = assay: Cytotoxicity against human HCT-116 cells assessed as reduction in cell viability measured after 7 days by Celltiter-glo luminescent cell viability assay; assay type: functional, cell-based; settings: HCT-116, 168 h
CDK8/Cyclin C = CDK8/Cyclin C (Homo sapiens, UniProt P49336); assay: Inhibition of kinase tracer 236 binding to His-tagged CDK8/cyclin C (unknown origin) incubated for 60 mins by LanthaScreen Eu-Kinase binding assay; assay type: protein-complex assay
Chain of CDK8/Cyclin C (P49336 whole entry): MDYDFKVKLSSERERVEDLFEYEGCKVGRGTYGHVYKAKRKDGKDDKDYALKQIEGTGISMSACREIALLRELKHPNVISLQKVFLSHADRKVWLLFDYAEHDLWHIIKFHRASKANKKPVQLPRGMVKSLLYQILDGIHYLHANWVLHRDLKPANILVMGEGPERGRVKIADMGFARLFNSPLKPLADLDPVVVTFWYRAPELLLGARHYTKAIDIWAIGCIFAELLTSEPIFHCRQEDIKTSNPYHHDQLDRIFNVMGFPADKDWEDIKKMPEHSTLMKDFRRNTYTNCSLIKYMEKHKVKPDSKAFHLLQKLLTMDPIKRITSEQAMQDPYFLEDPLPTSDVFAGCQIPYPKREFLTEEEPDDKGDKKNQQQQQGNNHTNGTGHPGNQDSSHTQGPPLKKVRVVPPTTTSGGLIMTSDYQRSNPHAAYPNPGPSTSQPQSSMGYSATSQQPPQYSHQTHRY
Chain of CDK8/Cyclin C (P24863 whole entry, further chain): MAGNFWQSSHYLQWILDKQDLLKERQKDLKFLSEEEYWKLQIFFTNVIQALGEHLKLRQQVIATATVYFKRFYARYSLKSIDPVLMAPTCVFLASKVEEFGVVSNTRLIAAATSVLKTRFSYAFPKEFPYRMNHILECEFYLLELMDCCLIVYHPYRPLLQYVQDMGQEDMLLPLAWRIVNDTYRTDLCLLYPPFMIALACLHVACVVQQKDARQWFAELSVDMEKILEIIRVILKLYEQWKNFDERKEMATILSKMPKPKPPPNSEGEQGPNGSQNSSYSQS

MOLM-14 [12] = assay: Down regulation of phosphorylated-STAT1 level in mouse xenografted with human MOLM-14 cells at 50 mg/kg, po administered twice a day for 21 days by Western blotting analysis; assay type: functional, organism-based; settings: time 21.0 day
MSTO-211H = assay: Cytotoxicity against human MSTO-211H cells assessed as reduction in cell viability and measured after 7 days by Celltiter-glo luminescent cell viability assay; assay type: functional, cell-based; settings: 168 h
SET-2 = assay: Cytotoxicity against human SET2 cells assessed as reduction in cell viability measured after 7 days by Celltiter-glo luminescent cell viability assay; assay type: functional, cell-based; settings: SET-2, 168 h
[13] = target: Homeodomain-interacting protein kinase 2 (Homo sapiens, UniProt Q9H2X6); assay: Inhibition of HIPK2 (unknown origin) using Ser/Thr 09 as substrate incubated for 60 mins in presence of ATP by Z'-Lyte assay
Chain of Homeodomain-interacting protein kinase 2 (Q9H2X6 whole entry): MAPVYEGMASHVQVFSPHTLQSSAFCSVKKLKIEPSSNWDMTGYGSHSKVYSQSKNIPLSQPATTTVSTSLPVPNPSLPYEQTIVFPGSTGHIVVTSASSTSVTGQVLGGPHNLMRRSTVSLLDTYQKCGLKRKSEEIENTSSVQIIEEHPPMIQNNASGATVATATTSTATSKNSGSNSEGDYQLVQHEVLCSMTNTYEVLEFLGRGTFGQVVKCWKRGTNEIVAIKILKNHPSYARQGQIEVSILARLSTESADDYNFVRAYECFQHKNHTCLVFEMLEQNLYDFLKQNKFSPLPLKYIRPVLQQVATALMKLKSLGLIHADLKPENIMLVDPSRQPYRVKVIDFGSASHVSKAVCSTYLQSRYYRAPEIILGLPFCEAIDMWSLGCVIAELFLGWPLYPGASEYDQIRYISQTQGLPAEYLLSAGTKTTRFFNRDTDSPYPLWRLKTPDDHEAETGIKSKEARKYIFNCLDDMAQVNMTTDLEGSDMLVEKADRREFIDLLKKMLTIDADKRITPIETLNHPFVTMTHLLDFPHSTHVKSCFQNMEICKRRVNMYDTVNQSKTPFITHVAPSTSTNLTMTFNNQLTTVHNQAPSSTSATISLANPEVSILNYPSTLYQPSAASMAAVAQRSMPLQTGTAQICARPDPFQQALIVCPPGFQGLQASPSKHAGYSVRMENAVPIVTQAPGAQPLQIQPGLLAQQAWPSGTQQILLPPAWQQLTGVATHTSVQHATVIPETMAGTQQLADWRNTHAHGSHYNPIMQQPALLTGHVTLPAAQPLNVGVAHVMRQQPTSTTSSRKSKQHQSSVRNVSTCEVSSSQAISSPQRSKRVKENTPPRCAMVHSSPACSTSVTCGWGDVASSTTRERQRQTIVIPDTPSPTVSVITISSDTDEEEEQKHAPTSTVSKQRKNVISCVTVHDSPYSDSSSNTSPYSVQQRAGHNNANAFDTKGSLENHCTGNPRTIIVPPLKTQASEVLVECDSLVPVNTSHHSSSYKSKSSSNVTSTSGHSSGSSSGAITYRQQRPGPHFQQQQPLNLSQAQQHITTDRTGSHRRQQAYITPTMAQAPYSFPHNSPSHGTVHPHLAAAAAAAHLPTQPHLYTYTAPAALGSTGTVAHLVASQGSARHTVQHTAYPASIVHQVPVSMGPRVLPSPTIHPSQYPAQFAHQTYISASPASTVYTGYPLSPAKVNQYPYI

MV4-11 [14] = assay: Down regulation of CTGF level in human MV-4-11 cells at 0.03 to 3 uM after 48 hrs by Western blotting analysis; assay type: functional, cell-based; settings: dose 0.03-3 µM
MV4-11 [15] = assay: Down regulation of phosphorylated-STAT3 level in human MV-4-11 cells after 24 hrs by Western blotting analysis; assay type: functional, cell-based; settings: dose 0.03-10 µM
MV4-11 [16] = assay: Down regulation of phosphorylated-STAT1 level in human MV-4-11 cells after 24 hrs by Western blotting analysis; assay type: functional, cell-based; settings: dose 0.03-10 µM
[17] = Toxicity in athymic nude mouse xenografted with human MOLM-14 cells assessed as effect on body weight at 50 mg/kg, po administered twice a day with 5 days on and 2 days off dosing schedule for 21 days and measured for every other day; assay type: organism-based; settings: in vivo, 504 h, time 3 weeks
NCI-H2052 = assay: Cytotoxicity against human H2052 cells assessed as reduction in cell viability and measured after 7 days by Celltiter-glo luminescent cell viability assay; assay type: functional, cell-based; settings: NCI-H2052, 168 h
BT-474 = assay: Cytotoxicity against human BT474 cells assessed as reduction in cell viability and measured after 7 days by Celltiter-glo luminescent cell viability assay; assay type: functional, cell-based; settings: BT-474, 168 h
MV4-11 [18] = assay: Down regulation of phosphorylated-STAT5 level in human MV-4-11 cells after 48 hrs by Western blotting analysis; assay type: functional, cell-based; settings: dose 0.03-3 µM
MV4-11 [19] = assay: Down regulation of phosphorylated-STAT1 level in human MV-4-11 cells after 48 hrs by Western blotting analysis; assay type: functional, cell-based; settings: dose 0.03-3 µM
A204 = assay: Cytotoxicity against human A204 cells assessed as reduction in cell viability and measured after 7 days by Celltiter-glo luminescent cell viability assay; assay type: functional, cell-based; settings: A204, 168 h
RS4-11 = assay: Cytotoxicity against human RS4-11 cells assessed as reduction in cell viability measured after 7 days by Celltiter-glo luminescent cell viability assay; assay type: functional, cell-based; settings: RS4-11, 168 h
HeLa = assay: Cytotoxicity against human HeLa cells assessed as reduction in cell viability measured after 7 days by Celltiter-glo luminescent cell viability assay; assay type: functional, cell-based; settings: 168 h
[20] = Cytotoxicity against human A549-Brm3 cells assessed as reduction in cell viability measured after 7 days by Celltiter-glo luminescent cell viability assay; assay type: functional, cell-based; settings: A549-BrM3, 168 h
COLO357 = assay: Cytotoxicity against human COLO-357 cells assessed as reduction in cell viability and measured after 7 days by Celltiter-glo luminescent cell viability assay; assay type: functional, cell-based; settings: COLO357, 168 h
MV4-11 [21] = assay: Down regulation of MCL-1 level in human MV-4-11 cells at 0.03 to 3 uM after 48 hrs by Western blotting analysis; assay type: functional, cell-based; settings: dose 0.03-3 µM
[22] = Toxicity in Ncr nu/nu mouse xenografted with human MV-4-11 cells assessed as effect on body weight at 50 mg/kg, po administered twice a day for 21 days and measured for every 3 days; assay type: organism-based; settings: in vivo, 504 h, time 21 day
MV4-11 [23] = assay: Down regulation of C-MYC level in human MV-4-11 cells at 0.03 to 3 uM after 48 hrs by Western blotting analysis; assay type: functional, cell-based; settings: dose 0.03-3 µM
MOLM-14 [24] = assay: Down regulation of phosphorylated-STAT3 level in human MOLM-14 cells at 0.03 to 3 uM after 24 hrs by Western blotting analysis; assay type: functional, cell-based; settings: dose 0.03-3 µM
MV4-11 [25] = assay: Down regulation of YAP level in human MV-4-11 cells at 0.03 to 3 uM after 48 hrs by Western blotting analysis; assay type: functional, cell-based; settings: dose 0.03-3 µM
MOLM-14 [26] = assay: Antitumor activity against human MOLM-14 cells xenografted in athymic nude mouse assessed as tumor growth inhibition at 50 mg/kg, po administered twice a day with 5 days on and 2 days off dosing schedule for 3 weeks and measured every other day; assay type: functional, organism-based
COLO 205 = assay: Cytotoxicity against human COLO-205 cells assessed as reduction in cell viability measured after 7 days by Celltiter-glo luminescent cell viability assay; assay type: functional, cell-based; settings: COLO 205, 168 h
Huh-7 = assay: Cytotoxicity against human Huh-7 cells assessed as reduction in cell viability and measured after 7 days by Celltiter-glo luminescent cell viability assay; assay type: functional, cell-based; settings: Huh-7, 168 h
U-251 = assay: Cytotoxicity against human U251 cells assessed as reduction in cell viability and measured after 7 days by Celltiter-glo luminescent cell viability assay; assay type: functional, cell-based; settings: U-251, 168 h
MOLM-14 [27] = assay: Down regulation of phosphorylated-STAT1 level in human MOLM-14 cells at 0.03 to 3 uM after 48 hrs by Western blotting analysis; assay type: functional, cell-based; settings: dose 0.03-3 µM
MV4-11 [28] = assay: Down regulation of CYR61 level in human MV-4-11 cells at 0.03 to 3 uM after 48 hrs by Western blotting analysis; assay type: functional, cell-based; settings: dose 0.03-3 µM
MOLM-14 [29] = assay: Down regulation of phosphorylated-STAT5 level in human MOLM-14 cells at 0.03 to 3 uM after 48 hrs by Western blotting analysis; assay type: functional, cell-based; settings: dose 0.03-3 µM
[30] = Cytotoxicity against human H290 cells assessed as reduction in cell viability and measured after 7 days by Celltiter-glo luminescent cell viability assay; assay type: functional, cell-based; settings: NCI-H290, 168 h
MV4-11 [31] = assay: Down regulation of phosphorylated-STAT5 level in human MV-4-11 cells after 24 hrs by Western blotting analysis; assay type: functional, cell-based; settings: dose 0.03-10 µM
OE33 = assay: Cytotoxicity against human OE33 cells assessed as reduction in cell viability measured after 7 days by Celltiter-glo luminescent cell viability assay; assay type: functional, cell-based; settings: OE33, 168 h
SW-620 [32] = assay: Cytotoxicity against human SW620 cells assessed as reduction in cell viability measured after 7 days by Celltiter-glo luminescent cell viability assay; assay type: functional, cell-based; settings: SW-620, 168 h
[33] = Cytotoxicity against human CLL-119 cells assessed as reduction in cell viability measured after 7 days by Celltiter-glo luminescent cell viability assay; assay type: functional, cell-based; settings: CLL-119, 168 h
MV4-11 [34] = assay: Antitumor activity against human MV-4-11 cells xenografted in NCr nu/nu mouse assessed as tumor growth inhibition at 50 mg/kg, po administered twice a day for 21 days and measured for every 3 days; assay type: functional, organism-based; settings: time 21.0 day
[35] = Cytotoxicity against human H2030-Brm3 cells assessed as reduction in cell viability measured after 7 days by Celltiter-glo luminescent cell viability assay; assay type: functional, cell-based; settings: H2030-BrM3, 168 h
[36] = Cytotoxicity against human TG-1 cells assessed as reduction in cell viability measured after 7 days by Celltiter-glo luminescent cell viability assay; assay type: functional, cell-based; settings: TG1, 168 h

Chain of Casein kinase II subunit alpha (P68400 whole entry): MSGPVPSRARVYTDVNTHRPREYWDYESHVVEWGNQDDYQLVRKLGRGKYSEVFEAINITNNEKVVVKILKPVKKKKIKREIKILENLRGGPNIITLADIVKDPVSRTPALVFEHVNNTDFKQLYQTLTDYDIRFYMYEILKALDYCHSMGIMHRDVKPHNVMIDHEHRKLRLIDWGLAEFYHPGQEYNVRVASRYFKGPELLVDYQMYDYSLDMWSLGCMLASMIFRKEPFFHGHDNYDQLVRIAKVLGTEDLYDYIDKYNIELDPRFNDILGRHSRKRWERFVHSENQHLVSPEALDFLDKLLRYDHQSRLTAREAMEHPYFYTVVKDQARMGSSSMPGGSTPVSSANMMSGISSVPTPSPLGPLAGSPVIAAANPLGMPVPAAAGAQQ

O=C(O)c1ccc2c(c1)cc(NC1CCC1)c1ccncc12
> 6.52: pIC50 [1]

CCC(C)Nc1cc2cc(C(=O)O)ccc2c2cnccc12 (centres undefined)
> 6.52: pIC50 [1]

Nc1nccc2c(Br)cc3cc(C(=O)[O-])ccc3c12.[Na+]
active: Activity (MOLM-14 [4]) | Activity (MOLM-14 [5]) | Activity (MOLM-14 [6]) | Activity (MV4-11 [8]) Dose-Dependent Effect | Activity (MOLM-14 [9]) Dose-Dependent Effect | Activity (MOLM-14 [11]) | Activity (MOLM-14 [12]) | Activity (MV4-11 [14]) | Activity (MV4-11 [15]) Dose-Dependent Effect | Activity (MV4-11 [16]) Dose-Dependent Effect | Activity (MV4-11 [18]) Dose-Dependent Effect | Activity (MV4-11 [19]) Dose-Dependent Effect | Activity (MV4-11 [21]) | Activity (MV4-11 [23]) | Activity (MOLM-14 [24]) | Activity (MV4-11 [25]) | Activity (MOLM-14 [26]) | Activity (MOLM-14 [27]) | Activity (MV4-11 [28]) | Activity (MOLM-14 [29]) | Activity (MV4-11 [31]) Dose-Dependent Effect | Activity (MV4-11 [34])
> 6.00: pIC50 (MV4-11 [2]) | pIC50 (MOLM-14 [7]) | pIC50 (SW-620 [10]) | pIC50 (SET-2) | pIC50 (RS4-11) | pIC50 (COLO 205) | pIC50 (Huh-7) | pIC50 (OE33) | pIC50 [33] | pIC50 [35] | pIC50 [36]
Non-Toxic: Activity [17] | Activity [22]
> 6.52: pIC50 [3] | pIC50 (CDK8/Cyclin C) | pIC50 [1] | pIC50 [13]
6.00: pIC50 (A549) | pIC50 (MCF7) | pIC50 (HCT-116) | pIC50 (MSTO-211H) | pIC50 (NCI-H2052) | pIC50 (BT-474) | pIC50 (A204) | pIC50 (HeLa) | pIC50 [20] | pIC50 (COLO357) | pIC50 (U-251) | pIC50 [30] | pIC50 (SW-620 [32])

O=C(O)c1ccc2c(c1)cc(Br)c1ccnc(Cl)c12
> 6.52: pIC50 [1]

O=C(O)c1ccc2c(c1)cc(Br)c1ccncc12
> 6.52: pIC50 [1] | pIC50 [13]

Nc1nccc2cc(Br)c3cc(C(=O)O)ccc3c12
> 6.52: pIC50 [13]

O=C(O)c1ccc2c(c1)cc(-c1cc[nH]n1)c1ccncc12
> 6.52: pIC50 [1]
